Measured values from ChEMBL document CHEMBL1649161, “Pharmacokinetics of EDP-420 after ascending single oral doses in healthy adult volunteers” (Antimicrob Agents Chemother, 2009).

How the values were obtained:
Format in all cases: ADME, organism-based
[1] = Distribution half life in healthy human at 400 mg, po administered as single dose; settings: in vivo
[2] = Terminal half life in healthy human at 400 mg, po administered as single dose; settings: in vivo
[3] = AUC (0 to infinity) in healthy human at 400 mg, po administered as single dose; set-up: dose 400 mg, time infinity, route oral; settings: plasma
[4] = Cmax in healthy human at 400 mg, po administered as single dose; set-up: dose 400 mg, route oral; settings: in vivo
[5] = AUC (0 to infinity) in healthy human at 500 mg, po administered as single dose; set-up: dose 500 mg, route oral, time infinity; settings: plasma
[6] = Cmax in healthy human at 500 mg, po administered as single dose; set-up: dose 500 mg, route oral; settings: in vivo
[7] = Half life in healthy human at 400 mg, po administered as single dose; settings: in vivo
[8] = Terminal half life in healthy human at 500 mg, po administered as single dose; settings: in vivo

AUC(0-inf) [3] | Cmax [4] | AUC(0-inf) [5] | SMILES | also measured
3090 ng·h/mL | 800 ng/mL | – | CC[C@H]1OC(=O)[C@H](C)C(=O)[C@H](C)[C@@H](O[C@@H]2O[C@H](C)C[C@H](N(C)C)[C@H]2O)[C@](C)(OC)C[C@@H](C)C(=O)[C@H](C)[C@H]2N(CCCCn3cnc(-c4cccnc4)c3)C(=O)O[C@]12C [TELITHROMYCIN] | half-life [1]: 2.13 h; half-life [2]: 6.68 h
– | – | 7700 ng·h/mL | CC[C@H]1OC(=O)[C@H](C)[C@@H](O[C@H]2C[C@@](C)(OC)[C@@H](O)[C@H](C)O2)[C@H](C)[C@@H](O[C@@H]2O[C@H](C)C[C@H](N(C)C)[C@H]2O)[C@](C)(O)C[C@@H](C)C(=O)[C@H](C)[C@@H](O)[C@]1(C)O [ERYTHROMYCIN] | Cmax [6]: 2000 ng/mL
7520 ng·h/mL | 780 ng/mL | – | CC[C@H]1OC(=O)[C@H](C)[C@@H](O[C@H]2C[C@@](C)(OC)[C@@H](O)[C@H](C)O2)[C@H](C)[C@@H](O[C@@H]2O[C@H](C)C[C@H](N(C)C)[C@H]2O)[C@](C)(OC)C[C@@H](C)C(=O)[C@H](C)[C@@H](O)[C@]1(C)O [CLARITHROMYCIN] | half-life [7]: 3.89 h
– | – | 3390 ng·h/mL | CC[C@H]1OC(=O)[C@H](C)[C@@H](O[C@H]2C[C@@](C)(OC)[C@@H](O)[C@H](C)O2)[C@H](C)[C@@H](O[C@@H]2O[C@H](C)C[C@H](N(C)C)[C@H]2O)[C@](C)(O)C[C@@H](C)CN(C)[C@H](C)[C@@H](O)[C@]1(C)O [AZITHROMYCIN] | half-life [8]: 35 h
